Laboratory results published in ChEMBL document CHEMBL4229345, “Inhibition of trypanosome alternative oxidase without its N-terminal mitochondrial targeting signal (ΔMTS-TAO) by cationic and non-cationic 4-hydroxybenzoate and 4-alkoxybenzaldehyde derivatives active against T. brucei and T. congolense” (Eur J Med Chem, 2018).

What was measured:
[1] = system: Trypanosoma brucei brucei; assay: Resistance factor, ratio of EC50 for bloodstream trypomastigote stage of Trypanosoma brucei brucei AQP triple knock out to EC50 for bloodstream trypomastigote stage of wild-type Trypanosoma brucei brucei Lister 427; assay type: functional
[2] = Selectivity index, ratio of CC50 for HEK cells to EC50 for bloodstream trypomastigote stage of wild-type Trypanosoma brucei brucei Lister 427; assay type: toxicity; conditions: human, read-out: Ratio CC50/EC50
[3] = system: Trypanosoma brucei brucei; assay: Anti-parasitic activity against bloodstream trypomastigote stage of wild-type Trypanosoma brucei brucei Lister 427 after 48 hrs in presence of 5 mM glycerol by resazurin-based assay; assay type: functional, organism-based; conditions: Lister 427, 48 h
[4] = system: Trypanosoma brucei; assay: Anti-parasitic activity against bloodstream trypomastigote stage of pentamidine/diminazene/melaminophenyl arsenical resistant Trypanosoma brucei B48 after 48 hrs by resazurin-based assay; assay type: functional, organism-based; conditions: B48, 48 h
[5] = Inhibition of recombinant N-terminal His6 tagged SUMO-fused Trypanosoma brucei brucei TC221 TAO MTS deletion mutant expressed in Escherichia coli FN102 preincubated for 2 mins followed by ubiquinol-1 addition measured over 2 mins by double beam-dual wavelength UV-spectrophotometry
[6] = system: Trypanosoma brucei brucei; assay: Anti-parasitic activity against bloodstream trypomastigote stage of wild-type Trypanosoma brucei brucei Lister 427 after 48 hrs by resazurin-based assay; assay type: functional, organism-based; conditions: Lister 427, 48 h
[7] = system: Trypanosoma brucei brucei; assay: Resistance factor, ratio of EC50 for bloodstream trypomastigote stage of Trypanosoma brucei brucei with AQP2/3-dd knock out to EC50 for bloodstream trypomastigote stage of wild-type Trypanosoma brucei brucei Lister 427; assay type: functional
[8] = Cytotoxicity against HEK cells assessed as reduction in cell viability after 30 hrs by resazurin-based assay; conditions: human
[9] = Resistance factor, ratio of EC50 for bloodstream trypomastigote stage of pentamidine/diminazene/melaminophenyl arsenical resistant Trypanosoma brucei B48 to EC50 for bloodstream trypomastigote stage of wild-type Trypanosoma brucei brucei Lister 427; assay type: functional
[10] = system: Trypanosoma brucei brucei; assay: Resistance factor, ratio of EC50 for bloodstream trypomastigote stage of wild-type Trypanosoma brucei brucei Lister 427 in presence of 5 mM glycerol to EC50 for bloodstream trypomastigote stage of wild-type Trypanosoma brucei brucei Lister 427; assay type: functional
[11] = system: Trypanosoma congolense; assay: Anti-parasitic activity against bloodstream form of Trypanosoma congolense IL3000 after 48 hrs by resazurin-based assay; assay type: functional, organism-based; conditions: IL3000, 48 h
[12] = system: Trypanosoma brucei brucei; assay: Anti-parasitic activity against bloodstream trypomastigote stage of Trypanosoma brucei brucei with AQP2/3-dd knock out after 48 hrs by resazurin-based assay; assay type: functional, organism-based
[13] = system: Trypanosoma brucei brucei; assay: Anti-parasitic activity against bloodstream trypomastigote stage of Trypanosoma brucei brucei with AQP triple knock out after 48 hrs by resazurin-based assay; assay type: functional, organism-based
[14] = Cytotoxicity against HFF cells assessed as reduction in cell viability after 30 hrs by resazurin-based assay; conditions: human
[15] = Selectivity index, ratio of CC50 for HFF cells to EC50 for bloodstream trypomastigote stage of wild-type Trypanosoma brucei brucei Lister 427; assay type: toxicity; conditions: human, read-out: Ratio CC50/EC50
[16] = Competitive inhibition of recombinant N-terminal His6 tagged SUMO-fused Trypanosoma brucei brucei TC221 TAO MTS deletion mutant expressed in Escherichia coli FN102 preincubated for 2 mins followed by ubiquinol-1 addition measured over 2 mins by Lineweaver-Burk plot analysis
[17] = Selectivity index, ratio of CC50 for HFF cells to EC50 for bloodstream form of Trypanosoma congolense IL3000; assay type: toxicity; conditions: human, read-out: Ratio CC50/EC50
[18] = system: Trypanosoma congolense; assay: Potency index, ratio of diminazene EC50 to test compound EC50 for anti-parasitic activity against bloodstream form of Trypanosoma congolense IL3000; assay type: functional
[19] = Half life in mouse serum by LC/MS analysis; assay type: ADME, cell-free
[20] = system: Trypanosoma brucei brucei; assay: Potency index, ratio of diminazene EC50 to test compound EC50 for anti-parasitic activity against bloodstream trypomastigote stage of wild-type Trypanosoma brucei brucei Lister 427; assay type: functional

| Compound | Ratio EC50 [1] | selectivity ratio [2] | EC50 [3] [µM] | EC50 [4] [µM] | IC50 [5] [µM] | EC50 [6] [µM] | Ratio EC50 [7] | CC50 at 30 h [8] [µM] | Ratio EC50 [9] | Ratio EC50 [10] | EC50 [11] [µM] | EC50 [12] [µM] | EC50 [13] [µM] | CC50 at 30 h [14] [µM] | selectivity ratio [15] | Ki [16] [µM] | selectivity ratio [17] | Ratio EC50 [18] | half-life [19] [min] | Ratio EC50 [20] |
| --- | --- | --- | --- | --- | --- | --- | --- | --- | --- | --- | --- | --- | --- | --- | --- | --- | --- | --- | --- | --- |
| O=C(OCCCCCCCCCCCCCCOC(=O)c1ccc(O)cc1O)c1ccc(O)cc1O | 0.35 | > 9 | 15.9 | 36.6 | 0.0157 | 42.1 | 0.67 | > 400 | 0.87 | 0.38 | > 100 | 28.2 | 14.8 |  |  |  |  |  |  |  |
| O=C(O)c1ccc(O)cc1F |  |  |  |  | 115 |  |  |  |  |  |  |  |  |  |  |  |  |  |  |  |
| O=C(OCCCCCCCCCCCCCCBr)c1ccc(O)cc1F | 0.48 |  | 7.19 | 17.3 | 0.03 | 14.7 | 0.46 |  | 1.2 | 0.49 | > 50 | 6.8 | 7 | > 200 | > 13 |  |  |  |  |  |
| Cc1cc(O)ccc1C(=O)OCCCCCCCCCCCCCCOC=O | 0.45 |  | 7.8 | 4.44 | 0.0011 | 4.1 | 0.34 |  | 1.1 | 1.92 |  | 1.4 | 1.8 | > 200 | > 48 | 0.0041 |  |  |  |  |
| O=Cc1ccc(OCCCCCCCCCCCCCCOc2ccc(C=O)c(O)c2)cc1O |  |  | 400 | 400 | 0.24 | 400 |  |  |  |  | 400 | 400 | 400 | > 200 |  |  |  |  |  |  |
| O=COCCCCCCCCCCOC(=O)c1ccc(O)cc1O | 0.49 | > 12 | 17.5 |  | 0.15 |  | 0.86 | > 400 | 0.69 | 0.55 |  | 27.4 | 15.6 |  |  |  |  |  |  |  |
| O=C(OCCCCCCCCCCCCCCCC[n+]1cccc2ccccc21)c1ccc(O)cc1O |  |  |  |  | > 5 |  |  |  |  |  |  |  |  |  |  |  |  |  |  |  |
| O=C(OCCCCCCBr)c1ccc(O)cc1O | 0.68 |  | 12.1 | 20.5 | 0.24 | 17.7 | 0.65 |  | 1.2 | 0.68 | 72.9 | 11.6 | 12.1 | > 200 | > 11 |  | > 2.7 |  |  |  |
| O=C(NO)c1ccccc1O [SALICYLHYDROXAMIC ACID] |  |  |  |  |  |  |  |  |  |  |  | 31.9 | 8.9 |  |  |  |  |  |  |  |
| Cc1cc(O)cc(O)c1C(=O)O [ORSELLINIC ACID] |  |  |  |  | 143 |  |  |  |  |  |  |  |  |  |  |  |  |  |  |  |
| O=Cc1ccc(OCCCCCCCCCCCCCCBr)cc1O | 0.45 |  | 10.7 | 15.5 | 0.073 | 17.6 | 0.48 |  | 0.9 | 0.61 | 42.6 | 8.4 | 7.9 | > 200 | > 11 |  | > 4.6 |  |  |  |
| N=C(N)c1ccc(OCCCCCOc2ccc(C(=N)N)cc2)cc1 [PENTAMIDINE] | 19.2 |  |  |  |  | 0.0033 | 14.1 |  | 285 | 1.14 |  | 0.047 | 0.064 |  |  |  |  |  |  |  |
| O=C(OCCCCCCCCCCCCCC[P+](c1ccccc1)(c1ccccc1)c1ccccc1)c1ccc(O)cc1F.[Br-] | 0.64 |  | 0.00039 | 0.00075 | 0.03 | 0.00058 | 0.43 |  | 1.3 | 0.66 | 0.018 | 0.00025 | 0.00037 | > 200 | > 344000 |  | > 11000 | 5 - 40 | < 15 | 5 - 40 |
| O=C(OCCCCBr)c1ccc(O)cc1O |  |  | 400 | 400 | 0.45 | 400 |  |  |  |  |  | 400 | 400 | > 200 |  |  |  |  |  |  |
